# Data as given in paper PMC12695667 (Nature, 2025).
# Several values for one entry are separate records, joined by “and”; a condition that tells them apart may be missing. Identical values can stand only once.
# What was measured:
# [1] = test system: C57BL/6J mouse dorsal skin; assay type: in vivo, C57BL/6J mice
# From the text: The dorsal skin of male C57BL/6J mice was exposed using depilatory cream and cleaned using PBS. A diffusing cell of 1.13 cm^2 was attached onto the dorsal skin. […] After timed topical administration, the mice were euthanized. The treated skin sites were washed and dissected. The entire skin samples were carefully washed three times with PBS, fixed with 4% paraformaldehyde (PFA) solution and sectioned into 10-μm-thick slices using a cryostat (UV800, Leica Microsystems). 4′,6-Diamidino-2′-phenylindole (DAPI) was used to stain and label the nuclei of skin tissues, and BODIPY was used to stain and localize subcutaneous fat deposits. […] The CLSM images were analysed using ImageJ.
# [2] = biological target: insulin receptor extracellular domains, His-tagged; assay: SPR; Biacore X100, CM5 chip; anti-His antibody immobilised, His-tag-ECD-IR captured on it; insulin (9.75-156 nM) or OP-I (4.06-65.0 nM) injected in HEPES running buffer pH 7.4, single-cycle kinetics, 180 s binding and 300 s dissociation, flow 30 ul/min
# [3] = test system: STZ-induced type 1 diabetic mice; assay: Blood glucose levels in STZ-induced diabetic mice; assay type: in vivo, C57BL/6J mice; settings: for Effect on BGLs, topical: topical 116 U kg^−1, 1.13 cm^2 dorsal skin
# Description: Type 1 diabetic mice were established through intraperitoneal delivery of STZ (150 mg per kg in 10 mg ml^−1 disodium citrate buffer, pH 4.5) into healthy male C57BL/6J mice (aged 6–8 weeks, ~25 g). BGLs were monitored, and the mice with BGLs exceeding 300 mg dl^−1 were considered diabetic. Diabetic mice with fasting BGLs within the 300 to 600 mg dl^−1 range were selected for the experiments. BGLs were measured from tail-vein blood (around 3 μl) using a calibrated Sinocare glucose meter.
# BGLs were measured at timed intervals. […] The diabetic mice were subjected to a fasting period of 12 h during the experimental procedures.
# [4] = test system: STZ-induced diabetic mice; assay: Intraperitoneal glucose tolerance test (IPGTT) in diabetic mice; assay type: in vivo, C57BL/6J mice; set-up: Area under the IPGTT blood glucose curve: unit not given here; settings: for Area under the IPGTT blood glucose curve: Fig. 3h, 0-120 min; for BGL after intraperitoneal glucose administration (IPGTT): diabetic mice, topical 116 U kg^−1, glucose 1.5 g per kg i.p., hyperglycaemic state maintained
# Description: BGLs were monitored over time. The diabetic mice were subjected to a fasting period of 3 h during the experimental procedures.
# [5] = test system: STZ-induced diabetic minipigs; assay: Blood glucose levels in STZ-induced diabetic minipigs (CGMS); assay type: in vivo, Guangxi Bama minipigs; settings: cream, 29 U kg^−1
# Description: Guangxi Bama minipigs (aged 6 months; weight, 35–40 kg) were infused with STZ in freshly prepared disodium citrate buffer (75 mg ml^−1, pH 4.5) at a 150 mg per kg dose within 10 min and then maintained for recovery. The glucose levels were monitored using CGMS[15] (Dexcom G4 Platinum Continuous Glucose Monitor System, Dexcom). A BGL that is constantly higher than 250 mg dl^−1 indicates the successful establishment of the insulin-deficient diabetic minipig model.
# The cream was topically applied onto the minipig abdominal skin at an insulin-equivalent dose of 40 mg or 10 mg (n = 3 for each group). The area with the cream was wrapped with plastic film. The BGLs of minipigs were continuously monitored using the CGMS. The diabetic minipigs were subjected to a fasting period of 12 h during the experimental procedures.
# [6] = test system: HaCat spheroids; assay: Penetration in 3D-cultured multilayer HaCat spheroids (with or without endocytosis/exocytosis inhibitors); assay type: cell-based, human; settings: FITC-eq 1 μg ml^−1, 12 h
# Description: Multilayer cell spheroids were prepared using the hanging-drop method. […] The cell suspensions (25 μl) were dropped onto the lids of the cell culture plate to form uniform droplets, and 20 ml PBS was added to the plate to keep the droplets moist. The cells were incubated for 72 h and formed dense spheroids, which were transferred to an agarose-coated (1% (w/v) in PBS) 96-well plate with one spheroid per well and incubated for another 72 h to mature. […] The spheroids were washed with PBS and imaged using CLSM by z-stack tomoscan at 20 μm intervals from the bottom to the middle of the spheroids. The integration of FITC fluorescence density and linescan analysis were performed using Image J.
# The HaCat spheroids were imaged and analysed as described above.
# Spheroids were pre-treated with the indicated inhibitors for 4 h, followed by incubation with
# The images are representative of n = 3 independent
# experiments. b, Line-scan analysis of FITC fluorescence along a randomly selected line (yellow
# (1 picture or pasted object on this page, not shown here)
# [7] = test system: phosphorylated IRβ/IGF1Rβ; assay: Western blotting for insulin signalling, pIR/IR in skeletal muscle; assay type: in vivo, mouse; settings: STZ-diabetic mice, 1 h after s.c. 5 U/kg, western blot, individual mice, n = 3
# Description: (§1) The mice were euthanized, and their skeletal muscle tissues were collected at 1 h after subcutaneous injection or 4 h after topical administration. Muscle samples were weighed and lysed in radioimmunoprecipitation buffer (Sigma-Aldrich) containing protease and phosphatase inhibitors (Thermo Fisher Scientific) and incubated on ice for 30 min. The lysates were centrifuged at 20,000g for 20 min at 4 °C and quantified using the BCA protein assay. […] The membranes were blocked in Tris-buffered saline with 0.5% Tween-20 (TBST) and 5% BSA for 1 h, followed by overnight incubation at 4 °C with primary antibodies against phosphorylated IRβ/IGF1Rβ (1:1,000), phosphorylated AKT-Thr308 (1:1,000) or GAPDH (1:5,000). After washing three times with TBST, the membranes were incubated with horseradish-peroxidase-conjugated secondary antibodies (HRP-labelled goat anti-rabbit IgG (H+L) or HRP-labelled Goat Anti-Mouse IgG (H+L)) at a dilution of 1:1,000 at room temperature for 1 h. Signal detection was performed using Immobilon Forte chemiluminescence substrate on the ChemiScope 3600 Mini Imaging System (Clinx Science Instruments). […]
# (§2) control. The blots are representative of n = 3 independent experiments . b, Quantification of pIR and pAKT levels. […]
# [8] = test system: phosphorylated AKT-Thr308; assay: Western blotting for insulin signalling, pAKT/AKT in skeletal muscle; assay type: in vivo, mouse; settings: STZ-diabetic mice, 1 h after s.c. 5 U/kg, individual mice, n = 3
# Description: as §1, §2
Compound,"Effect on BGLs, topical [3]",Area under the IPGTT blood glucose curve ([4]; replicate 1),Area under the IPGTT blood glucose curve ([4]; replicate 2),Area under the IPGTT blood glucose curve ([4]; replicate 3),Area under the IPGTT blood glucose curve ([4]; replicate 4),Area under the IPGTT blood glucose curve ([4]; replicate 5),BGL after intraperitoneal glucose administration (IPGTT) [4],Effect of topical treatment on minipig BGLs [5],Fluorescence of HaCat spheroids (CLSM) [6],also measured
CCN1/C(=C/C=C/C=C/C2=[N+](CCCCCC(=O)O)c3ccc(S(=O)(=O)O)cc3C2(C)C)C(C)(C)c2cc(S(=O)(=O)[O-])ccc21 [free Cy5],–,–,–,–,–,–,–,–,–,Transdermal permeability of free label [1]: no detectable transdermal permeability
"OP-conjugated insulin (insulin conjugated to poly[2-(N-oxide-N,N-dimethylamino)ethyl methacrylate])",–,–,–,–,–,–,–,–,–,koff [2]: 0.0053 s⁻¹; kon [2]: 204000 M⁻¹ s⁻¹
"PEG–I: PEGylated insulin, PEG molecular mass of 5 kDa, used as a control",negligible effect on BGLs,63110,52617,56133,51381,44798,around 600 mg dl^−1,almost no obvious changes in minipig BGLs,–,–
PEG–I^FITC: FITC-labelled PEG–I,–,–,–,–,–,–,–,–,only weak fluorescence,–
"insulin: Human recombinant insulin (29 U mg^−1, I8830, Solarbio) [reference compound]",negligible effect on BGLs,55359,62309,59228,59472,58535,around 600 mg dl^−1,almost no obvious changes in minipig BGLs,–,"BGL after rebound within 4 h ([3]; s.c. 5 U kg^−1): around 400 mg dl^−1; BGL reached within 1 h ([3]; s.c. 5 U kg^−1, from around 400): ~100 mg/dL; PIR/IR [7]: 0.1659 and 0.2361 and 0.221; pAKT/AKT [8]: 0.4051 and 0.6287 and 0.4302"
insulin^FITC: FITC-labelled insulin,–,–,–,–,–,–,–,–,only weak fluorescence,–
